Biological target: T1, CciAA9-X282-CBM1 (Coprinopsis cinerea, UniProt A8NCG7)
T1 construct: gene AA9-X282; AA9-X282-linker-CBM1; C-terminal poly-His tag; Pichia pastoris X33
Assay: Amplex Red/HRP oxidase assay (H2O2 production)
Assay type: biochemical
Conditions: reductant (electron donor) at 50 uM, O2 as co-substrate; 1 uM enzyme; sodium phosphate 50 mM, pH 7.0

T1 sequence (A8NCG7 19-342): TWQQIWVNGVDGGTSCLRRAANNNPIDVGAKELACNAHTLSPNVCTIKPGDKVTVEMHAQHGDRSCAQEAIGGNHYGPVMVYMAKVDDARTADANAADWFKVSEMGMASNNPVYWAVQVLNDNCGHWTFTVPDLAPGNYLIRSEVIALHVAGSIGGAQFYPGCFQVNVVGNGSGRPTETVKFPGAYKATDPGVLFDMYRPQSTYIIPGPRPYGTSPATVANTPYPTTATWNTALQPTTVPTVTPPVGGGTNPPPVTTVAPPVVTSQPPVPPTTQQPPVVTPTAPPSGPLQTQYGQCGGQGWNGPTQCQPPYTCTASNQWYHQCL

For `O=C1O[C@H]([C@@H](O)CO)C(O)=C1O` [ascorbic acid], the “Amplex Red/HRP oxidase assay (H2O2 production)” value was “all AA9-X282 LPMOs displayed an oxidase (i.e. H2O2 producing) activity”.
